The results in this text go back to patent publication US20260097047A1, “Small molecule inhibitors of the ribosome biogenesis factor NVL2” (Board of Regents, The University of Texas System, priority 2023, published 2026).

In data set [1] the test system is HCT116 cells. The data set is described as follows: Cell viability assay (CellTiter-Glo, 72 hours) in HCT116 human colorectal cancer cells. The note with it: for IC50: Homo sapiens, HCT-116. The data set is classed as cell-based. Put shortly: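 2,000 cells/well adhered overnight, then compound added by digital dispenser with DMSO normalized to 0.5%. Viability read after 72 h at 37 °C by ATP-based CellTiter-Glo luminescence. IC50 from ten-point curves baseline-corrected to vehicle, five-parameter asymmetric least-squares fit.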
Background: Cellular ATP, detected with luciferase, serves as a proxy for viable cell number.

Data set [2] can be described thus: Toxicity read-outs in efficacy study (body weight, blood counts, blood chemistry). The note with it: 35 mg/kg IP twice a day for 21 days. The format is in vivo. The protocol: (§1) Having established the kinetics of MM927 mediated NVL inhibition in xenograft tumors, we administered 35 mg/kg MM927 IP twice a day for 21 days to mice harboring tumors derived from either HCT116 NVL wild type or NVL^R403W cells. […] Taken together, we concluded that the potent, and bioavailable analog MM927 reduces tumor growth in mouse xenografts by inhibiting NVL without toxicity.
(§2) Efficacy study: Five million parental HCT116 cells or HCT116 NVL^R403W in a volume of 0.1 mL were implanted in the right flank. Tumor volumes were measured every 2 to 4 days with calipers. Volume is calculated as [(L*W^2)*3.14]/6. When volumes reached ˜110 mm^3, treatment was started with 35 mg/kg MM927 or vehicle control (0.2 mL/mouse) twice a day for 21 days. Mice were euthanized at the end of the 21-day treatment period or when any tumor reached 2 cm in its largest diameter, in agreement with the approved animal protocol. At the end of treatment, blood and tumor tissue were collected for pharmacokinetic analysis, measurement of complete blood counts, and blood chemistry measurements as described. Serum alanine transaminase and blood urea nitrogen were analyzed using VITROS MicroSlide technology.

For data set [3], the system named is HCT116 NVL^P307T cells. The data set can be described thus: Cell viability in compound-resistant HCT116 NVL^P307T cells. The data set is classed as cell-based, human. The conditions noted are these: for IC50: Homo sapiens, HCT-116, NVL^P307T. An excerpt: Assessing the ability of NVL2 inhibitors to selectively kill WT versus NVL2^mut HCT116, block ribosome biogenesis and induce p53. We evaluate analogs in the colorectal cancer cell line HCT116 and already available compound-resistant clones. One clone has a mutation in the compound binding site (NVL2^R403W) and another clone (NVL2^P307T) has a mutation distant from the binding site that confers resistance through an unknown effect. Based on our results, analogs that kill HCT116 cells via NVL2 inhibition (on-target) have reduced potency in compound-resistant HCT116 mutant clones. Our analogs have been counter-screened against the NVL2 compound-resistant mutant clones with fold resistance range between 10-100 fold (most analogs 20-50 fold). This counter screen provides a strategy for identifying off-target toxins.
From whole exome sequencing, we identified variants that were acquired during IAA-induced mutagenesis with the hypothesis that genes related to resistance will be mutated in multiple clones. Two genes contained acquired variants in at least 3 of the 15 selected clones: TERT, mutated in 3 of 15 clones, and NVL, mutated in all 15 clones. […] In sum, 57 out of 59 unique clones harbored NVL mutations. The majority of mutations clustered within the D1 AAA+ ATPase domain and frequently affecting the same codons. To test whether these mutations are sufficient for MM017 resistance, we used CRISPR-Cas9 to knock-in two of the most resistant mutations (NVL^P307T, NVL^R403W) and a mutation with intermediate resistance (NVL^H304R). Transfection of cells with sgRNAs targeting these NVL residues in addition to a mutation-encoding repair template yielded an increased rate of resistance when compared to mock treatments.
HCT116 cells were transfected with TransIT-LT (Mirus #MIR2304) according to manufacturer's protocol with a guide RNA (either mock or NVL targeting) in the px330 vector (Addgene, #42230), and 10 nM single stranded deoxyoligonucleotide encoding a specific NVL mutation (see below for specific sequences). 72 hours after transfection, cells were selected by MM017 treatment. The resulting cells were evaluated by cresyl violet staining or collected and the relevant NVL mutations were analyzed by either amplicon or sanger sequencing.
Cell viability assay: In 96-well assay plates (Corning #2903), 2,000 cells were plated per well in 100 μL of medium and allowed to adhere overnight. The next day, compounds suspended in DMSO were dispensed to the assayed wells using a D300e Digital Dispenser (Tecan). All wells were normalized to 0.5% DMSO. 72 hours after incubation at 37° C. in 5% CO2, cell viability was assayed using an ATP-based luminescent viability assay, CellTiter-Glo (Promega #G8462). Substrate was mixed 1:1 with phosphate-buffered saline (PBS) supplemented with 1% Triton X-100, and 40 μL of this mixture was added to the assay wells. Plates were shaken on a microplate shaker for 10 minutes at room temperature. Luminescence (CellTiter-Glo) was recorded using a Synergy 2 microplate reader (BioTek). In Prism 9 software (GraphPad), ten-point dose response curves were plotted with baseline-correction to the vehicle control well, and IC50 values were calculated by curve fitting using asymmetric (five parameter), least squares fit.

Data set [4] has as its system HCT116 NVL^R403W tumors. The data set is described as follows: Efficacy study: HCT116 NVL^R403W xenografts. The format is in vivo, mouse. The conditions noted are these: 35 mg/kg IP twice a day for 21 days. The method, then:
as §1, §2

Like-named read-outs stand apart in the source and are kept apart here.

For `CC#CCN1C(=O)c2ccc(F)cc2Sc2cc(NC(=O)c3ccc4oc(=O)n(C)c4c3)ccc21` [MM927, N-(10-(But-2-yn-1-yl)-3-fluoro-11-oxo-10,11-dihydrodibenzo[b,f][1,4]thiazepin-7-yl)-3-methyl-2-oxo-2,3-dihydrobenzo[d]oxazole-5-carboxamide], the “potency relative to parent compound MM017” value in data set [1] (HCT116 proliferation) is “five times more potent”. In addition, the IC50 in data set [1] (read-out: IC50, HCT116 proliferation) worked out at 79 nM. In addition, in data set [2], the “body weight, red and white blood cells, hemoglobin, platelets, alanine transaminase, blood urea nitrogen versus vehicle” value is “no significant difference”; the overt toxicity entry was “no signs of overt toxicity”. Moreover, in data set [3], the “resistance of NVL^P307T cells” value was “relatively resistant” and the IC50 was 1670 nM. Further, in data set [4], the “endpoint tumor burden, NVL^R403W” value is given as “no effect” and the “rate of growth of NVL^R403W tumors” value is “no significant impact”.
`COCCN1C(=O)c2ccccc2Sc2cc(NC(=O)c3ccoc3)ccc21` [MM017]: the IC50 in data set [1] (NVL^WT, read-out: IC50) was 380 nM. In data set [3], the “resistance of NVL^P307T cells” value was “comparatively resistant” and the IC50 was above 50000 nM.
